Eleven compounds from ChEMBL document CHEMBL1255559, “Novel macrocyclic HCV NS3 protease inhibitors derived from α-amino cyclic boronates” (Bioorg Med Chem Lett, 2010) can be followed below.

Assay [1] concerns Hepatitis C virus. The experiment in a line: Antiviral activity against HCV 1b infected in human hepatoma cells by replicon assay. The conditions noted are these: genotype 1b. The format is functional, organism-based, Hepacivirus hominis.
Assay [2] relates to Hepatitis C virus. The experiment in a line: Antiviral activity against HCV 1a infected in human hepatoma cells by replicon assay. Format: functional, organism-based, Hepacivirus hominis. The conditions noted are these: subtype 1a. Background: In antiviral work, replicon cells carry a viral genome segment that copies itself.
Assay [3] is described as follows: Inhibition of HCV 1a NS3/4A protease by FRET assay. Further details: species or system Hepatitis C virus subtype 1a.

One may read the EC50 as the concentration giving half of the maximal effect. A high value points to a less potent agent. What is called IC50 is the concentration that inhibits the measured activity by half. The low end stands for higher potency, the high end for lower potency.

As to `CC(C)(C)[C@H](NC(=O)OC1CCCC1)C(=O)N1C[C@H](OC(=O)N2Cc3cccc(F)c3C2)C[C@H]1C(=O)N[C@@H]1BOCC1`, the 50% effective concentration (EC50) in the assay on Hepatitis C virus [1] was over 10000 nM; with Hepatitis C virus [2] it was 8700 nM.

With `CC1(C)CCCCc2cccc3c2CN(C3)C(=O)O[C@@H]2C[C@@H](C(=O)N[C@@H]3BOCC3)N(C2)C(=O)[C@H](C(C)(C)C)NC(=O)OC1`, half-maximal inhibition in assay [3] (IC50) required 43 nM. The EC50 in the assay with Hepatitis C virus [1] was 354 nM; with Hepatitis C virus [2], 780 nM.

In turn, `C[C@H]1COB[C@H]1NC(=O)[C@@H]1C[C@@H]2CN1C(=O)[C@H](C(C)(C)C)NC(=O)OCC(C)(C)CCCCc1cccc3c1CN(C3)C(=O)O2` gave an IC50 in assay [3] of 130 nM. In addition, the values for the concentration giving a half-maximal response (EC50) with Hepatitis C virus [1] and in the assay on Hepatitis C virus [2] were 1700 nM and 1900 nM, respectively.

`CC1(C)CCCCc2cccc3c2CN(C3)C(=O)O[C@@H]2C[C@@H](C(=O)N[C@@H]3BOC[C@@H]3C3CC3)N(C2)C(=O)[C@H](C(C)(C)C)NC(=O)OC1` showed an IC50 in assay [3] of 110 nM. Moreover, the figures for the concentration for a half-maximal effect (EC50) with Hepatitis C virus [1] and in the assay on Hepatitis C virus [2] were 4200 nM and 980 nM, respectively.

Regarding `CC1(C)CCCCc2cccc3c2CN(C3)C(=O)O[C@@H]2C[C@@H](C(=O)N[C@H]3CCCOB3O)N(C2)C(=O)[C@H](C(C)(C)C)NC(=O)OC1`, in assay [3], the 50% inhibitory concentration (IC50) is 62 nM. The half-maximal effective concentration (EC50) was found to be 2800 nM with Hepatitis C virus [1] and 1300 nM with Hepatitis C virus [2].

`CC1(C)CCCCc2cccc3c2CN(C3)C(=O)O[C@@H]2C[C@@H](C(=O)N[C@H]3CCCCOB3O)N(C2)C(=O)[C@H](C(C)(C)C)NC(=O)OC1`: the 50% inhibitory concentration (IC50) in assay [3] was found to be 47 nM. Further, the EC50 was 200 nM in the assay on Hepatitis C virus [1] and 380 nM in the assay with Hepatitis C virus [2].

`CC1(C)CCCCc2cccc3c2CN(C3)C(=O)O[C@@H]2C[C@@H](C(=O)N[C@H]3BOCC3)N(C2)C(=O)[C@H](C(C)(C)C)NC(=O)OC1` came in with a half-inhibitory concentration (IC50) in assay [3] of 1400 nM. The EC50 was over 50000 nM in the assay with Hepatitis C virus [1] and 11000 nM with Hepatitis C virus [2].

For the compound `C[C@@H]1COB[C@@H]1NC(=O)[C@@H]1C[C@@H]2CN1C(=O)[C@H](C(C)(C)C)NC(=O)OCC(C)(C)CCCCc1cccc3c1CN(C3)C(=O)O2`, the 50% inhibitory concentration (IC50) in assay [3] was 25000 nM. For the same compound, the figures for the concentration giving a half-maximal response (EC50) with Hepatitis C virus [1] and in the assay on Hepatitis C virus [2] were 30000 nM and 33000 nM, respectively.

Take `CC1(C)CCCCc2cccc3c2CN(C3)C(=O)O[C@@H]2C[C@@H](C(=O)N[C@@H]3CCCOB3O)N(C2)C(=O)[C@H](C(C)(C)C)NC(=O)OC1`: in assay [3], the half-inhibitory concentration (IC50) was determined as 1300 nM. Moreover, the EC50 in the assay with Hepatitis C virus [1] was over 25000 nM; with Hepatitis C virus [2], 12000 nM.

For `CC1(C)CCCCc2cccc3c2CN(C3)C(=O)O[C@@H]2C[C@@H](C(=O)N[C@@H]3CCCCOB3O)N(C2)C(=O)[C@H](C(C)(C)C)NC(=O)OC1`, inhibition in assay [3] was half-maximal at 300 nM (IC50). The figures for the concentration for a half-maximal effect (EC50) in the assay on Hepatitis C virus [1] and with Hepatitis C virus [2] were 3900 nM and 3700 nM, respectively.

For `CC[C@@H]1C[C@]1(NC(=O)[C@@H]1C[C@@H]2CN1C(=O)[C@H](C(C)(C)C)NC(=O)OCC(C)(C)CCCCc1cccc3c1CN(C3)C(=O)O2)C(=O)NS(=O)(=O)C1CC1`, the concentration for a half-maximal effect (EC50) with Hepatitis C virus [1] and in the assay on Hepatitis C virus [2] was at most 1 nM each time.
